Measured values from ChEMBL document CHEMBL3769388, “Optimization of a Dicarboxylic Series for in Vivo Inhibition of Citrate Transport by the Solute Carrier 13 (SLC13) Family” (J Med Chem, 2016).
Calls of active or inactive are those of the source. The rule behind the calls is not given here.

Assays:
[1] = molecular target: Bile salt export pump (Homo sapiens, UniProt O95342); test: Inhibition of ABCB11 (unknown origin)
[2] = Passive permeability in MDCK cells; assay type: ADME, cell-based, Canis lupus familiaris; conditions: dog
[3] = molecular target: 3',5'-cyclic-AMP phosphodiesterase 4D (Homo sapiens) (UniProt Q08499); test: Inhibition of PDE4D3 (unknown origin)
[4] = molecular target: D(1A) dopamine receptor (Homo sapiens) (UniProt P21728); test: Inhibition of D1 (unknown origin)
[5] = molecular target: Muscarinic acetylcholine receptor M1 (Homo sapiens) (UniProt P11229); test: Inhibition of M1 (unknown origin)
[6] = molecular target: Prostaglandin G/H synthase 2 (Homo sapiens) (UniProt P35354); test: Inhibition of cyclooxygenase 2 (unknown origin)
[7] = molecular target: Voltage-gated inwardly rectifying potassium channel KCNH2 (Homo sapiens, UniProt Q12809); test: Inhibition of human ERG
[8] = molecular target: Type-1 angiotensin II receptor (Homo sapiens) (UniProt P30556); test: Inhibition of AGTR1 (unknown origin)
[9] = tested on: Rattus norvegicus; test: Decrease in [14C]citrate uptake in iv dosed Wistar Han rat testis measured after 185 to 200 mins by scintillation counting method; assay type: functional, organism-based
[10] = molecular target: cGMP-inhibited 3',5'-cyclic phosphodiesterase 3B (Homo sapiens) (UniProt Q13370); test: Inhibition of PDE3B (unknown origin)
[11] = molecular target: Tyrosine-protein kinase ABL1 (Homo sapiens) (UniProt P00519); test: Inhibition of ABL1 (unknown origin)
[12] = Total plasma clearance in Wistar Han rat at 1 mg/kg, iv by LC-MS/MS analysis; assay type: ADME, organism-based
[13] = organism: Mus musculus; test: Decrease in [14C]citrate uptake in DIO mouse liver during hyperinsulinemic-euglycemic clamp; assay type: functional, organism-based
[14] = molecular target: Histamine H2 receptor (Homo sapiens) (UniProt P25021); test: Inhibition of H2 (unknown origin)
[15] = molecular target: Epidermal growth factor receptor (Homo sapiens) (UniProt P00533); test: Inhibition of EGFR (unknown origin)
[16] = molecular target: High affinity choline transporter 1 (Homo sapiens) (UniProt Q9GZV3); test: Inhibition of choline transporter 1 (unknown origin)
[17] = molecular target: Na(+)/citrate cotransporter (Mus musculus, UniProt Q67BT3); test: Inhibition of NaCT in mouse hepatocytes assessed as [14C]-citrate uptake after 30 mins by scintillation counting method; assay type: cell-based, Hepatocyte
[18] = organism: Rattus norvegicus; test: Increase in [12C]-citrate levels in rat liver measured over 140 to 150 mins by UPLC-MS/MS analysis; assay type: functional, organism-based
[19] = Clearance in human hepatocytes assessed per 10^6 cells; assay type: ADME, cell-based, Hepatocyte; conditions: read-out: CLH
[20] = molecular target: ATP-citrate synthase (Homo sapiens) (UniProt P53396); test: Inhibition of ACL (unknown origin) upto 30 uM
[21] = molecular target: Alpha-1A adrenergic receptor (Homo sapiens) (UniProt P35348); test: Inhibition of ADRA1A (unknown origin)
[22] = molecular target: 5-hydroxytryptamine receptor 1B (Homo sapiens) (UniProt P28222); test: Inhibition of 5HT1B (unknown origin)
[23] = molecular target: Vascular endothelial growth factor receptor 2 (Homo sapiens) (UniProt P35968); test: Inhibition of VEGFR2 (unknown origin)
[24] = molecular target: Alpha-2B adrenergic receptor (Homo sapiens) (UniProt P18089); test: Inhibition of ADRA2B (unknown origin)
[25] = molecular target: Histamine H1 receptor (Homo sapiens) (UniProt P35367); test: Inhibition of H1 (unknown origin)
[26] = molecular target: Cytochrome P450 2C9 (Homo sapiens, UniProt P11712); test: Inhibition of CYP2C9 (unknown origin); assay type: ADME
[27] = molecular target: 5-hydroxytryptamine receptor 3A (Homo sapiens) (UniProt P46098); test: Inhibition of 5HT3 receptor (unknown origin)
[28] = AUC(0 to t) in Wistar Han rat at 5 mg/kg, po by LC-MS/MS analysis; assay type: ADME, organism-based; conditions: in vivo
[29] = Clearance in rat hepatocytes assessed per 10^6 cells; assay type: ADME, cell-based, Hepatocyte; conditions: read-out: CLH
[30] = molecular target: Gastrin/cholecystokinin type B receptor (Homo sapiens) (UniProt P32239); test: Inhibition of CCKBR (unknown origin)
[31] = tested on: Rattus norvegicus; test: Decrease in [14C]citrate uptake in iv dosed Wistar Han rat liver measured after 185 to 200 mins by scintillation counting method; assay type: functional, organism-based
[32] = molecular target: Alpha-2A adrenergic receptor (Homo sapiens) (UniProt P08913); test: Inhibition of ADRA2A (unknown origin)
[33] = tested on: Mus musculus; test: Increase in urinary citrate output in C57BL/6J mouse at 250 mg/kg, po measured after 7 hrs by UPLC-MS/MS analysis; assay type: functional, Urine
[34] = molecular target: T1, Solute carrier family 13 member 2 (Homo sapiens, UniProt Q13183); test: Inhibition of NaDC1 (unknown origin) expressed in HEK293 cells assessed as inhibition of [14C]citrate uptake by microbeta plate reader analysis; assay type: cell-based
T1 sequence (Q13183 whole entry): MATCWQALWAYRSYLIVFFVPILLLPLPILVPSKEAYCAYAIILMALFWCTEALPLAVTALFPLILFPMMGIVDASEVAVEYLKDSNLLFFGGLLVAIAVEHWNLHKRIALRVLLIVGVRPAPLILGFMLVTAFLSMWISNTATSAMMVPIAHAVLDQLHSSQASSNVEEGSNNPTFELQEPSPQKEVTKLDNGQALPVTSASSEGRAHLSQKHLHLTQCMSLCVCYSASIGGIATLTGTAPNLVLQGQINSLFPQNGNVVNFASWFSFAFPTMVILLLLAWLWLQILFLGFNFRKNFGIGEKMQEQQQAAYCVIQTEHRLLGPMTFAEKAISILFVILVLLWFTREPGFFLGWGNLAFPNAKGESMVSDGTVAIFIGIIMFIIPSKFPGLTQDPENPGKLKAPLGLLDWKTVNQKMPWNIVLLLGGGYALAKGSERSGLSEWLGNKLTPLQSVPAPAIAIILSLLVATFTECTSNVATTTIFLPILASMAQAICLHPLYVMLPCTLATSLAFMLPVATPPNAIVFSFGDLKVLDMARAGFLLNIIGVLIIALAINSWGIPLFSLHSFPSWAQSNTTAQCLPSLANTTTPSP

[35] = molecular target: Sodium channel protein type 1 subunit alpha (Homo sapiens) (UniProt P35498); test: Inhibition of NaV1.1 (unknown origin)
[36] = molecular target: Neuronal acetylcholine receptor; alpha4/beta2 (Homo sapiens) (UniProt P17787+P43681); test: Inhibition of alpha-4/beta-2 (unknown origin); assay type: protein-complex assay
[37] = molecular target: Glucocorticoid receptor (Homo sapiens) (UniProt P04150); test: Inhibition of GR (unknown origin)
[38] = molecular target: Kappa-type opioid receptor (Homo sapiens) (UniProt P41145); test: Inhibition of OPRK1 (unknown origin)
[39] = molecular target: Na(+)/citrate cotransporter (Rattus norvegicus, UniProt Q8CJ44); test: Inhibition of NaCT in rat hepatocytes assessed as [14C]-citrate uptake after 30 mins by scintillation counting method; assay type: cell-based, Hepatocyte
[40] = molecular target: Substance-P receptor (Homo sapiens) (UniProt P25103); test: Inhibition of NK1 receptor (unknown origin)
Sequence of Substance-P receptor (Homo sapiens) (P25103 whole entry): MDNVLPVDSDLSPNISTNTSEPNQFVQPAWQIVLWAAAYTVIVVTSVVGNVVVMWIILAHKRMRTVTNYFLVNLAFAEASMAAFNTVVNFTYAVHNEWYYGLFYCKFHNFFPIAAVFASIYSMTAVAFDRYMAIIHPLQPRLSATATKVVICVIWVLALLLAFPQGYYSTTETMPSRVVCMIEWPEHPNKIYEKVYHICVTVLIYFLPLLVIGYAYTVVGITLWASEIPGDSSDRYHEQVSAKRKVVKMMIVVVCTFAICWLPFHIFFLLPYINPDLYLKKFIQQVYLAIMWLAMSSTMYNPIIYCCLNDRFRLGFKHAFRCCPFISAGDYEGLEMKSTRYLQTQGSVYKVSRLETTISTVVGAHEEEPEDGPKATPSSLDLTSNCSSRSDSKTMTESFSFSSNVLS

Sequence of Cytochrome P450 2C9 (P11712 whole entry): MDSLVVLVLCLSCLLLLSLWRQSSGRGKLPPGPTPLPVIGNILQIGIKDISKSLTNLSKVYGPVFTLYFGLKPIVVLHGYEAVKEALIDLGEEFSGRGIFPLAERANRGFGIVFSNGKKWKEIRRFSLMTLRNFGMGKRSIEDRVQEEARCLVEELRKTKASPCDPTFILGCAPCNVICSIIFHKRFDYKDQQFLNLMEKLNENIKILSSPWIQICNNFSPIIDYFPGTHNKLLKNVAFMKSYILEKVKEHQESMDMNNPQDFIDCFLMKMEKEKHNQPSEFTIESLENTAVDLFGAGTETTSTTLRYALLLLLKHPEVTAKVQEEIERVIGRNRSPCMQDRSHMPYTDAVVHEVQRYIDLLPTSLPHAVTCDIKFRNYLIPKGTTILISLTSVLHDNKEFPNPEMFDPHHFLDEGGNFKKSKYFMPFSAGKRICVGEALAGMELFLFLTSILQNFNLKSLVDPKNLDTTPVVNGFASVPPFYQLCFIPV
Sequence of Gastrin/cholecystokinin type B receptor (Homo sapiens) (P32239 whole entry): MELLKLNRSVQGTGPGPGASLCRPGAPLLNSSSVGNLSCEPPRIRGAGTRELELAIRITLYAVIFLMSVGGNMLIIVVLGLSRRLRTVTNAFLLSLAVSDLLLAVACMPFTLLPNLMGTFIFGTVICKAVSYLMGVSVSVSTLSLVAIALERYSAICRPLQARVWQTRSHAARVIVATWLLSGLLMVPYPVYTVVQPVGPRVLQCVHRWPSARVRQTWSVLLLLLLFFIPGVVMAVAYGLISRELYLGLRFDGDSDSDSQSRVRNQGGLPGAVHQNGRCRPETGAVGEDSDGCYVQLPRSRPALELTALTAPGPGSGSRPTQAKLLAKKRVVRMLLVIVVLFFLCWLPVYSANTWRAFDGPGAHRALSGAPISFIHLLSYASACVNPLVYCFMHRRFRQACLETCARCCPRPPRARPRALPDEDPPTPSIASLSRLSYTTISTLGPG
Sequence of Tyrosine-protein kinase ABL1 (Homo sapiens) (P00519 whole entry): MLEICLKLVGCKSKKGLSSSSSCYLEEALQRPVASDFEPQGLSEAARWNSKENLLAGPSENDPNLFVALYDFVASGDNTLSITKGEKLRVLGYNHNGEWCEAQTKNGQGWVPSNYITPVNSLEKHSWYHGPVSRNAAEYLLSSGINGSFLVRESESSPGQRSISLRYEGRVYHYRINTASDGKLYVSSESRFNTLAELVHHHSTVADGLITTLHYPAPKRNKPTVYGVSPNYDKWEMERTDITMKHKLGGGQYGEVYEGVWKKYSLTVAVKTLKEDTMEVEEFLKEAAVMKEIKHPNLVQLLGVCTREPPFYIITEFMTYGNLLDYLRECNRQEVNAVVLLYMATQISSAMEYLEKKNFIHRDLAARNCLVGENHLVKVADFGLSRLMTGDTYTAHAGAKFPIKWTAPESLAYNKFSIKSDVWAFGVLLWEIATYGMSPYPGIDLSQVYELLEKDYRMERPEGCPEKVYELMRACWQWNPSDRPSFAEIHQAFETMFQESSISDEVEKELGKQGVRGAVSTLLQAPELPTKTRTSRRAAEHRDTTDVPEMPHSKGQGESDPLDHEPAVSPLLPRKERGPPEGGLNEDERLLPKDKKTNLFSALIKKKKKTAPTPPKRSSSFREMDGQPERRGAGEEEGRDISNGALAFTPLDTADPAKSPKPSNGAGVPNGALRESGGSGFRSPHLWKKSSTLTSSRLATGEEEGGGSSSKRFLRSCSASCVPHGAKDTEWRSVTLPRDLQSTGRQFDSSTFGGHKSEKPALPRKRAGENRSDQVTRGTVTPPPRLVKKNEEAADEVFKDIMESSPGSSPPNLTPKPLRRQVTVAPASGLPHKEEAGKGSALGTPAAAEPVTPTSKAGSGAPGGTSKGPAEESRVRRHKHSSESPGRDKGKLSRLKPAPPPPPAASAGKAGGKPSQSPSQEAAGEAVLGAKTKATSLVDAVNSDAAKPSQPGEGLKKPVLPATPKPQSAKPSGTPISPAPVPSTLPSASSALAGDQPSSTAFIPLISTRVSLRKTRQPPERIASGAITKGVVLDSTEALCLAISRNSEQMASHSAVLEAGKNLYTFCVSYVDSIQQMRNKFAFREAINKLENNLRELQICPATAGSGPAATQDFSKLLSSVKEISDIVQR
Sequence of ATP-citrate synthase (Homo sapiens) (P53396 whole entry): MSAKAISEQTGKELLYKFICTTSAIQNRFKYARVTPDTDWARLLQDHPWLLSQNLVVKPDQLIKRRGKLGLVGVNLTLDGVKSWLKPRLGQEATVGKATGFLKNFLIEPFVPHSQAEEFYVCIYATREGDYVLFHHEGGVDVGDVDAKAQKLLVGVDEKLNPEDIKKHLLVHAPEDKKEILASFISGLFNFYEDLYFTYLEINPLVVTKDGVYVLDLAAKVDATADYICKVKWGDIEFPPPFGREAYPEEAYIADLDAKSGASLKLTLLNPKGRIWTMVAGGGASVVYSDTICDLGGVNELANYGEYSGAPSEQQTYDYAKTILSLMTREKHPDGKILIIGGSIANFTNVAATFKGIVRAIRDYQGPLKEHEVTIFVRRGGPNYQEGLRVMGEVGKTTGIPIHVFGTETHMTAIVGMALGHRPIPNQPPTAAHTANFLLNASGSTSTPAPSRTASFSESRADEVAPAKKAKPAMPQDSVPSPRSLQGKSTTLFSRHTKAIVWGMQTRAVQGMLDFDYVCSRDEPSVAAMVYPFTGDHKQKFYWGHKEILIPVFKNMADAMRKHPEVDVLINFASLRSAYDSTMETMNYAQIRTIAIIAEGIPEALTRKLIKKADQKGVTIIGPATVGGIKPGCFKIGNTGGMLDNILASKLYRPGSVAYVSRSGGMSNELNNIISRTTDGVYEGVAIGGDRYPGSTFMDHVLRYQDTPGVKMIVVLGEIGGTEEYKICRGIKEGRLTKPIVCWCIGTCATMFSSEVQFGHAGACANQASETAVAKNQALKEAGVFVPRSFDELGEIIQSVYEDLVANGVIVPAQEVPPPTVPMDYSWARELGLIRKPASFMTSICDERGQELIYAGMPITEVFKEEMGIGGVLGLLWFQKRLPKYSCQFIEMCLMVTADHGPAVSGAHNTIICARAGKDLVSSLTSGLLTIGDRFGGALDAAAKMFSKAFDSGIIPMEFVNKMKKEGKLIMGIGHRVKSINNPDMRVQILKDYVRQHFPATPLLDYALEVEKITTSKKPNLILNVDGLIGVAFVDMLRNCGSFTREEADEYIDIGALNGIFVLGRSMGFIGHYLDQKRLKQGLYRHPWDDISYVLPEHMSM
Sequence of 5-hydroxytryptamine receptor 3A (Homo sapiens) (P46098 whole entry): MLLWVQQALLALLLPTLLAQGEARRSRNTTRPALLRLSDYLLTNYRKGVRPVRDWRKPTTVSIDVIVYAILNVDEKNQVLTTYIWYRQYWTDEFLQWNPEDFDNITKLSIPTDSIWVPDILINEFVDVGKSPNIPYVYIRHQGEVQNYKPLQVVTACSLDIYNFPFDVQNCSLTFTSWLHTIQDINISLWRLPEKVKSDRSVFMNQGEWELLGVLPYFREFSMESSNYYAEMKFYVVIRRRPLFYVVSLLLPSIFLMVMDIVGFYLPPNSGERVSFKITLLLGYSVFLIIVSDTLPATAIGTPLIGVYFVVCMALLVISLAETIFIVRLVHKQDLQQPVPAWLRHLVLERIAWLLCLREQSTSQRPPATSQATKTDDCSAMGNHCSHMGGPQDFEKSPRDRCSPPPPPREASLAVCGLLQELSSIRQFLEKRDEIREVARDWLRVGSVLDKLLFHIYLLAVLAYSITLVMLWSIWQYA
Sequence of Prostaglandin G/H synthase 2 (Homo sapiens) (P35354 whole entry): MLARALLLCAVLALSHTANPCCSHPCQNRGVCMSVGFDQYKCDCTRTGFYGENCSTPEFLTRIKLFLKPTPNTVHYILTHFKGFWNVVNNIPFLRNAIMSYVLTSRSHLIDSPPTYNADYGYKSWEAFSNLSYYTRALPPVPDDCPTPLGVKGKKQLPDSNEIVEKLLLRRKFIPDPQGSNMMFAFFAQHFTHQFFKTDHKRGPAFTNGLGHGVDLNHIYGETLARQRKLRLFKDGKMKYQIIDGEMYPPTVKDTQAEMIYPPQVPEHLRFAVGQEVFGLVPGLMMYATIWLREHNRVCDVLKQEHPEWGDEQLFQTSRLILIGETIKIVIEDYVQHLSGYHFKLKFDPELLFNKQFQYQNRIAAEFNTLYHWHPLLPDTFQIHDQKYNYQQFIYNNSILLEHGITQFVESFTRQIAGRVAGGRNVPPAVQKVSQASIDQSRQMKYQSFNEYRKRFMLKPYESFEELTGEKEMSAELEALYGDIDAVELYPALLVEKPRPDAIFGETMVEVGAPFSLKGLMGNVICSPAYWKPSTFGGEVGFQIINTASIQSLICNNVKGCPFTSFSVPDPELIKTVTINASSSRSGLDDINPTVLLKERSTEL
Sequence of Kappa-type opioid receptor (Homo sapiens) (P41145 whole entry): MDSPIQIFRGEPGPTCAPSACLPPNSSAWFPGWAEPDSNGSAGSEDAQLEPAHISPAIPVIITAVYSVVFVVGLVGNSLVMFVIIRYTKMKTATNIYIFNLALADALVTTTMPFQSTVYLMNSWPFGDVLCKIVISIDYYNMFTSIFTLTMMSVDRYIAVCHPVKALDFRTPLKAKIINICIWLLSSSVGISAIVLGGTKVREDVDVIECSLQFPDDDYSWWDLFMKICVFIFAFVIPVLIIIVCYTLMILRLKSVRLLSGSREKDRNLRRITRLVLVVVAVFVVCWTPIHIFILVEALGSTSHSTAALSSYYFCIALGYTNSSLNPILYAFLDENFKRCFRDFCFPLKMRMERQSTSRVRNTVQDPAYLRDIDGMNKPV

COc1ncc(C)cc1CC[C@@](O)(CC(=O)O)C(=O)O
inhibition (INH) [1]: Not Active | Papp [2]: 0.3 ×10⁻⁶ cm/s | inhibition [3]: inactive | inhibition [4]: inactive | inhibition [5]: inactive | inhibition [6]: inactive | inhibition (INH) [7]: Not Active | inhibition [8]: inactive | IC50 [9]: 1000 nM | inhibition [10]: inactive | inhibition [11]: inactive | clearance [12]: 15.8 mL/min/kg | inhibition [13]: Active | inhibition [14]: inactive | inhibition [15]: inactive | inhibition [16]: inactive | IC50 [17]: 210 nM | Activity [18]: Active | hepatocyte CLint [19]: 7 µL/min/1e6 cells | inhibition [20]: inactive | inhibition [21]: inactive | inhibition [22]: inactive | inhibition [23]: inactive | inhibition [24]: inactive | inhibition [25]: inactive | inhibition (INH) [26]: Not Active | inhibition [27]: inactive | AUC(0-t) [28]: 4890 ng·h/mL | hepatocyte CLint [29]: < 6 µL/min/1e6 cells | inhibition [30]: inactive | IC50 [31]: 1400 nM | inhibition [32]: inactive | fold change (FC) [33]: 230 | IC50 ([34]; read-out: IC50): 13200 nM | IC50 ([34]; read-out: pIC50 (converted)): 10000 nM | inhibition [35]: inactive | inhibition [36]: inactive | inhibition [37]: inactive | inhibition [38]: inactive | IC50 [39]: 120 nM | inhibition [40]: inactive
